# Legend:
# ACVR1B = biological target: T1, ACVR1B (Homo sapiens, UniProt P36896); test: KinomeScan; format: binding; details: read-out: % control
# T1 construct: purchased DiscoveRx KINOMEscan
# CSNK2A1 = biological target: T2, CSNK2A1 (Homo sapiens, UniProt P68400); test: KinomeScan; format: binding; details: read-out: % control
# T2 construct: purchased DiscoveRx KINOMEscan
# BRK = biological target: T3, BRK (Homo sapiens, UniProt Q13882); test: KinomeScan; format: binding; details: read-out: % control
# T3 construct: purchased DiscoveRx KINOMEscan
# MYO3A = biological target: T4, MYO3A (Homo sapiens, UniProt Q8NEV4); test: KinomeScan; format: binding; details: read-out: % control
# T4 construct: purchased DiscoveRx KINOMEscan
# CSNK1G2 = biological target: T5, CSNK1G2 (Homo sapiens, UniProt P78368); test: KinomeScan; format: binding; details: read-out: % control
# T5 construct: purchased DiscoveRx KINOMEscan
# [1] = biological target: T6, JAK3(JH1domain-catalytic) (Homo sapiens, UniProt P52333); test: KinomeScan; format: binding; details: read-out: % control
# T6 construct: JAK3(JH1domain-catalytic); purchased DiscoveRx KINOMEscan
# PIK3CA(I800L) = biological target: T7, PIK3CA(I800L) (Homo sapiens, UniProt P42336, I800L); test: KinomeScan; format: binding; details: read-out: % control
# T7 construct: purchased DiscoveRx KINOMEscan
# BLK = biological target: T8, BLK (Homo sapiens, UniProt P51451); test: KinomeScan; format: binding; details: read-out: % control
# T8 construct: purchased Invitrogen (SelectScreen service)
# HIPK2 = biological target: T9, HIPK2 (Homo sapiens, UniProt Q9H2X6); test: KinomeScan; format: binding; details: read-out: % control
# T9 construct: purchased DiscoveRx KINOMEscan
# KIT(A829P) = biological target: T10, KIT(A829P) (Homo sapiens, UniProt P10721, A829P); test: KinomeScan; format: binding; details: read-out: % control
# T10 construct: purchased DiscoveRx KINOMEscan
# LOK = biological target: T11, LOK (Homo sapiens, UniProt O94804); test: KinomeScan; format: binding; details: read-out: % control
# T11 construct: purchased DiscoveRx KINOMEscan
# CAMK1 = biological target: T12, CAMK1 (Homo sapiens, UniProt Q14012); test: KinomeScan; format: binding; details: read-out: % control
# T12 construct: purchased DiscoveRx KINOMEscan
# PIK3CG = biological target: T13, PIK3CG (Homo sapiens, UniProt P48736); test: KinomeScan; format: binding; details: read-out: % control
# T13 construct: purchased DiscoveRx KINOMEscan
# [2] = biological target: T14, ABL1(H396P)-nonphosphorylated (Homo sapiens, UniProt P00519, H396P); test: KinomeScan; format: binding; details: read-out: % control
# T14 construct: purchased DiscoveRx KINOMEscan
# PRKD1 = biological target: T15, PRKD1 (Homo sapiens, UniProt Q15139); test: KinomeScan; format: binding; details: read-out: % control
# T15 construct: purchased DiscoveRx KINOMEscan
# EGFR(L747-T751del,Sins) = test: KinomeScan; format: binding; details: 1μM
# TSSK3 = biological target: T16, TSSK3 (Homo sapiens, UniProt Q96PN8); test: KinomeScan; format: binding; details: read-out: % control
# T16 construct: purchased DiscoveRx KINOMEscan
# AXL = biological target: T17, AXL (Homo sapiens, UniProt P30530); test: KinomeScan; format: binding; details: read-out: % control
# T17 construct: purchased DiscoveRx KINOMEscan
# p38-beta = biological target: T18, p38-beta (Homo sapiens, UniProt Q15759); test: KinomeScan; format: binding; details: read-out: % control
# T18 construct: purchased DiscoveRx KINOMEscan
# AURKC = biological target: T19, AURKC (Homo sapiens, UniProt Q9UQB9); test: KinomeScan; format: binding; details: read-out: % control
# T19 construct: purchased DiscoveRx KINOMEscan
# STK36 = biological target: T20, STK36 (Homo sapiens, UniProt Q9NRP7); test: KinomeScan; format: binding; details: read-out: % control
# T20 construct: purchased DiscoveRx KINOMEscan
# ERK8 = biological target: T21, ERK8 (Homo sapiens, UniProt Q8TD08); test: KinomeScan; format: binding; details: read-out: % control
# T21 construct: purchased DiscoveRx KINOMEscan
# ADCK3 = biological target: T22, ADCK3 (Homo sapiens, UniProt Q8NI60); test: KinomeScan; format: binding; details: read-out: % control
# T22 construct: purchased DiscoveRx KINOMEscan
# p38-gamma = biological target: T23, p38-gamma (Homo sapiens, UniProt P53778); test: KinomeScan; format: binding; details: read-out: % control
# T23 construct: purchased DiscoveRx KINOMEscan
# KIT(D816H) = biological target: T24, KIT(D816H) (Homo sapiens, UniProt P10721, D816H); test: KinomeScan; format: binding; details: read-out: % control
# T24 construct: purchased DiscoveRx KINOMEscan
# TNIK = biological target: T25, TNIK (Homo sapiens, UniProt Q9UKE5); test: KinomeScan; format: binding; details: read-out: % control
# T25 construct: purchased DiscoveRx KINOMEscan
# TGFBR2 = biological target: T26, TGFBR2 (Homo sapiens, UniProt P37173); test: KinomeScan; format: binding; details: read-out: % control
# T26 construct: purchased DiscoveRx KINOMEscan
# CHO = test: Anti-proliferation, normal cells (CellTiter-Glo); details: Cricetulus griseus, 72 h
# Procedure: Cells were grown in 96-well culture plates (2500-3000/well). For adherent cell lines, compounds of various concentrations were added into the plates after cells were cultured for 12 hours. Cell proliferation was determined after treatment with compounds for 72 hours. Cell viability was measured using the CellTiter–Glo assay (Promega, USA) according to the manufacturer's instructions, and luminescence was measured in a multi-label reader (Envision, PerkinElmer, USA). Data were normalized to control groups (DMSO) and represented by the mean of three independent measurements with standard error <20%. GI50 values were calculated using Prism 5.0 (GraphPad Software, San Diego, CA).
# [3] = biological target: T27, ABL1(F317L)-phosphorylated (Homo sapiens, UniProt P00519, F317L); test: KinomeScan; format: binding; details: read-out: % control
# T27 construct: purchased DiscoveRx KINOMEscan
# PIK3CA(E545A) = biological target: T28, PIK3CA(E545A) (Homo sapiens, UniProt P42336, E545A); test: KinomeScan; format: binding; details: read-out: % control
# T28 construct: purchased DiscoveRx KINOMEscan
# [4] = biological target: T29, JAK2(JH1domain-catalytic) (Homo sapiens, UniProt O60674); test: KinomeScan; format: binding; details: read-out: % control
# T29 construct: JAK2(JH1domain-catalytic); purchased DiscoveRx KINOMEscan
# EPHA4 = biological target: T30, EPHA4 (Homo sapiens, UniProt P54764); test: KinomeScan; format: binding; details: read-out: % control
# T30 construct: purchased DiscoveRx KINOMEscan
# SNARK = biological target: T31, SNARK (Homo sapiens, UniProt Q9H093); test: KinomeScan; format: binding; details: read-out: % control
# T31 construct: purchased DiscoveRx KINOMEscan
# SRPK3 = biological target: T32, SRPK3 (Homo sapiens, UniProt Q9UPE1); test: KinomeScan; format: binding; details: read-out: % control
# T32 construct: purchased DiscoveRx KINOMEscan
# EPHA5 = biological target: T33, EPHA5 (Homo sapiens, UniProt P54756); test: KinomeScan; format: binding; details: read-out: % control
# T33 construct: purchased DiscoveRx KINOMEscan
# MST1 = biological target: T34, MST1 (Homo sapiens, UniProt Q13043); test: KinomeScan; format: binding; details: read-out: % control
# T34 construct: purchased DiscoveRx KINOMEscan
# PAK3 = biological target: T35, PAK3 (Homo sapiens, UniProt O75914); test: KinomeScan; format: binding; details: read-out: % control
# T35 construct: purchased DiscoveRx KINOMEscan
# MRCKA = biological target: T36, MRCKA (Homo sapiens, UniProt Q5VT25); test: KinomeScan; format: binding; details: read-out: % control
# T36 construct: purchased DiscoveRx KINOMEscan
# DRAK2 = biological target: T37, DRAK2 (Homo sapiens, UniProt O94768); test: KinomeScan; format: binding; details: read-out: % control
# T37 construct: purchased DiscoveRx KINOMEscan
# [5] = biological target: T38, ABL1(T315I)-phosphorylated (Homo sapiens, UniProt P00519, T315I); test: KinomeScan; format: binding; details: read-out: % control
# T38 construct: purchased DiscoveRx KINOMEscan
# DYRK2 = biological target: T39, DYRK2 (Homo sapiens, UniProt Q92630); test: KinomeScan; format: binding; details: read-out: % control
# T39 construct: purchased DiscoveRx KINOMEscan
# SgK110 = biological target: T40, SgK110 (Homo sapiens, UniProt P0C264); test: KinomeScan; format: binding; details: read-out: % control
# T40 construct: purchased DiscoveRx KINOMEscan
# T7 sequence (P42336 whole entry I800L): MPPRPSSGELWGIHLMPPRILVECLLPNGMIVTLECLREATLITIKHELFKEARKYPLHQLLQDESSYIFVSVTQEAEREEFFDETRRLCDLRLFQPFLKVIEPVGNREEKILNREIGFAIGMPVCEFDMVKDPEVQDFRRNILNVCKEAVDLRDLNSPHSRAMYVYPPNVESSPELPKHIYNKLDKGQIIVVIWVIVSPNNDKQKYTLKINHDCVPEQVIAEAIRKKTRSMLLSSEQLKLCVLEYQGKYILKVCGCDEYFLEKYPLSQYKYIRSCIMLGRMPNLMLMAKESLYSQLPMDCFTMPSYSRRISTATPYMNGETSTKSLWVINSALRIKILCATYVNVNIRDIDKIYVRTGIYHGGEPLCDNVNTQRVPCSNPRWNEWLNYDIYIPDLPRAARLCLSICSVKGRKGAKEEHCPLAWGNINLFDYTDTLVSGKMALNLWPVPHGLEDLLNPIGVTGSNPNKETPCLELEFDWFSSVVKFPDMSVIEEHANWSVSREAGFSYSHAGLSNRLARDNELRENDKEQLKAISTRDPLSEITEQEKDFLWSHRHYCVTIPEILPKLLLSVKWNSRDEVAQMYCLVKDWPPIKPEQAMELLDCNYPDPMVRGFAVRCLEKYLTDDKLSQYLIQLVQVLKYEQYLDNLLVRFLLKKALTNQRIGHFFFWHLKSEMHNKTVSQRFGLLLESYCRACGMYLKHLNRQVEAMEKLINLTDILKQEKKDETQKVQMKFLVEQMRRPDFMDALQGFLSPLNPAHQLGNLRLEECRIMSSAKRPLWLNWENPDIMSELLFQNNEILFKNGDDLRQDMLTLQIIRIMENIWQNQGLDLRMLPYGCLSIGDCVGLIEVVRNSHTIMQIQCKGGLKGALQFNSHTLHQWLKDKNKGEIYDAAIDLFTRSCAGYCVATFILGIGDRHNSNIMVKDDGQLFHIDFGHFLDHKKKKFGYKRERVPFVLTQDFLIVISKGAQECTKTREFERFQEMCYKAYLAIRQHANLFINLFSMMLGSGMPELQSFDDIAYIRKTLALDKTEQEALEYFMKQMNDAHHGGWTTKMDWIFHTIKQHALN
# T1 sequence (P36896 24-505): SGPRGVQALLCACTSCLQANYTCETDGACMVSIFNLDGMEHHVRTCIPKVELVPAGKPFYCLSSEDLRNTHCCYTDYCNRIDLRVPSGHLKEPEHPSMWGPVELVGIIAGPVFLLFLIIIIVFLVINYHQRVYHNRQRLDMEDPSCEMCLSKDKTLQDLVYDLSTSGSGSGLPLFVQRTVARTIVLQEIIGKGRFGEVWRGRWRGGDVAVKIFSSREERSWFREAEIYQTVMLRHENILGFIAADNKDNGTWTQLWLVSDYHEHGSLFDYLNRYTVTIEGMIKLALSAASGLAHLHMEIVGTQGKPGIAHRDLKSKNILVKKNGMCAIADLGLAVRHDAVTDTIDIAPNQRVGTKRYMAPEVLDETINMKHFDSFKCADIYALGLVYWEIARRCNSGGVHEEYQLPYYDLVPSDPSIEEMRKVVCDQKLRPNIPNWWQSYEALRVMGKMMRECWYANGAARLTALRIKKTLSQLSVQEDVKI
# T8 sequence (P51451 whole entry): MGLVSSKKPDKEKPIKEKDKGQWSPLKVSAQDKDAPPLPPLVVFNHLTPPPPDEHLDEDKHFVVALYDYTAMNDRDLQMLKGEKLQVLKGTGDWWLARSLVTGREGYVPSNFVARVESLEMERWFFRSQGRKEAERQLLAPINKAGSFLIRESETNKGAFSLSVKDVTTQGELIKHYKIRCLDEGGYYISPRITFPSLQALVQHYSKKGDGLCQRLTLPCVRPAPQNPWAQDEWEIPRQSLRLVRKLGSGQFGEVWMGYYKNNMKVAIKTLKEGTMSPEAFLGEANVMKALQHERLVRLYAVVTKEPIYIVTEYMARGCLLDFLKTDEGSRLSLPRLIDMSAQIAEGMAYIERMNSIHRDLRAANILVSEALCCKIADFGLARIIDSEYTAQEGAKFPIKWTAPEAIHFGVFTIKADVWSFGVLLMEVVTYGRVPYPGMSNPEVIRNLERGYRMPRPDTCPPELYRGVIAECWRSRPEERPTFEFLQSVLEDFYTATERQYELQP
# T5 sequence (P78368 whole entry): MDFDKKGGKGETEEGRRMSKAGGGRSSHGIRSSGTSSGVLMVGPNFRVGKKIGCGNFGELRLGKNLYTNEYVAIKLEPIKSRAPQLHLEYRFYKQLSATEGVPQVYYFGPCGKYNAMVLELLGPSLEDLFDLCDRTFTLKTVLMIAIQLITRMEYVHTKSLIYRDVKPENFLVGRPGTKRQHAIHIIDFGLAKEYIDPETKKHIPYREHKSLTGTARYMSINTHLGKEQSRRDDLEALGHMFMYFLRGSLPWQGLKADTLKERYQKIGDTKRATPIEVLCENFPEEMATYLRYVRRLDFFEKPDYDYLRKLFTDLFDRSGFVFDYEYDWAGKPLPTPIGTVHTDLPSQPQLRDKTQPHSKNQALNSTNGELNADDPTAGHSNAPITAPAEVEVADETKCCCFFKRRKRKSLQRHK
# T39 sequence (Q92630 whole entry): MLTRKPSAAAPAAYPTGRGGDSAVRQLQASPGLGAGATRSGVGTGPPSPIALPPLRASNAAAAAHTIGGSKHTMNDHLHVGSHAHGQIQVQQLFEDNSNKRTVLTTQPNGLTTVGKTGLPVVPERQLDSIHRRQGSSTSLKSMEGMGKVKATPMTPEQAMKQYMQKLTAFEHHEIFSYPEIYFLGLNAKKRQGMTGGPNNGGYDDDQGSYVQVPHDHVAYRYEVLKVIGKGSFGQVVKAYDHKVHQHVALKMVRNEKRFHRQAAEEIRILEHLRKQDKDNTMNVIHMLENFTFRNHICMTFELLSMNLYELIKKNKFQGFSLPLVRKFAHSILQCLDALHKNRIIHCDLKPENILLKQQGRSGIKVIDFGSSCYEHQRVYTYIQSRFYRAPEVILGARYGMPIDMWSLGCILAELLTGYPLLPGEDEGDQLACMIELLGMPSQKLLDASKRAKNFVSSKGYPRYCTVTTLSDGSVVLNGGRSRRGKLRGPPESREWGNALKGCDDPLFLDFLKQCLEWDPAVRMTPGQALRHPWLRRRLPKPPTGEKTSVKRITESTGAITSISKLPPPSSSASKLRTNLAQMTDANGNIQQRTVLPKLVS
# T17 sequence (P30530 26-894): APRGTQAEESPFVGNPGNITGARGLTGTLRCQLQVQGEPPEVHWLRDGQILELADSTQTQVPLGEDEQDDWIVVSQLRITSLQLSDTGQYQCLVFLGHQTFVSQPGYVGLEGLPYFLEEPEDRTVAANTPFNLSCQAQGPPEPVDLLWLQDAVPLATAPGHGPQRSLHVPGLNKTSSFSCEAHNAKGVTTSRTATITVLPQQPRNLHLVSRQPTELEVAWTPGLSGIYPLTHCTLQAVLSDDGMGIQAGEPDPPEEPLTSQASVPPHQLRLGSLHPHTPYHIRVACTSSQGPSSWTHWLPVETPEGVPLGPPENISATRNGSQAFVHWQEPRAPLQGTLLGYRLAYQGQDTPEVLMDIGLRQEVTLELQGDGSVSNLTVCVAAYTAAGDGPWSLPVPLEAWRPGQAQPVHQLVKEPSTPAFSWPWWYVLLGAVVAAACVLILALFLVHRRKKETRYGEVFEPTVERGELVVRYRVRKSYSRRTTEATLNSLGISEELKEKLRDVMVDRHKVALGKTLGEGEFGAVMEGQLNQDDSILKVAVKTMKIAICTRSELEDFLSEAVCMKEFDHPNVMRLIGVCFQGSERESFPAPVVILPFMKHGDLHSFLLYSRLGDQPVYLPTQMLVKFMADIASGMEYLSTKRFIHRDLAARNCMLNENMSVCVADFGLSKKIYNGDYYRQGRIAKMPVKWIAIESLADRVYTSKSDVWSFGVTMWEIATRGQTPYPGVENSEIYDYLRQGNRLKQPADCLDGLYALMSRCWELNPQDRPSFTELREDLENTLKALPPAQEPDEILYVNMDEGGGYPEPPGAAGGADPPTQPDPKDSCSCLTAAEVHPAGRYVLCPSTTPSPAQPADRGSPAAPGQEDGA
# T6 sequence (P52333 822-1124 limits assumed): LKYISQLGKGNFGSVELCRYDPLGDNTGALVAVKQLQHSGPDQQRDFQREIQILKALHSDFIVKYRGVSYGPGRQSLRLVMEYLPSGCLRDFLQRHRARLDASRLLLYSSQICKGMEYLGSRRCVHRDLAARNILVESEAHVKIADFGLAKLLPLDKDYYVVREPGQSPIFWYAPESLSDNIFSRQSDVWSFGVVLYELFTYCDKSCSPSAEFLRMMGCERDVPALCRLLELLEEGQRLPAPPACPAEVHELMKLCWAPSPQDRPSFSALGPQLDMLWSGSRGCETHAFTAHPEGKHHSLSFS
# T31 sequence (Q9H093 whole entry): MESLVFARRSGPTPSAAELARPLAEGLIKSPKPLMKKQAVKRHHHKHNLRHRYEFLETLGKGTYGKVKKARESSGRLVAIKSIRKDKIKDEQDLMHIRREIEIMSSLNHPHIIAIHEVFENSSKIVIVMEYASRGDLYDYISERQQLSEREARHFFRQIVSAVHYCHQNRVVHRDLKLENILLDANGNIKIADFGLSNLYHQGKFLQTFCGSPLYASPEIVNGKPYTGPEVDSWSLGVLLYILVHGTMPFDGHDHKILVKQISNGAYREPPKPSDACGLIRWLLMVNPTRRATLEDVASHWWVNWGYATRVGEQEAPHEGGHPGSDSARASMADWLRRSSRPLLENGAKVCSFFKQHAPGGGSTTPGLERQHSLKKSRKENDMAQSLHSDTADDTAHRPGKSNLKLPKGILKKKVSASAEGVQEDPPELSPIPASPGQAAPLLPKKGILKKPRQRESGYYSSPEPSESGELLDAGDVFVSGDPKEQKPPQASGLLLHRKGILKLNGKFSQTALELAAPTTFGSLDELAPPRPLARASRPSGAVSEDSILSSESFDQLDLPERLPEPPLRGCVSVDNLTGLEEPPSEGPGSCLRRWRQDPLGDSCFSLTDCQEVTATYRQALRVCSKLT
# T28 sequence (P42336 whole entry E545A): as the sequence (P42336 whole entry I800L) above, with E545A, L800I counted along it
smiles,measurement,setting,value
C=CC(=O)N1CCC[C@@H](n2nc(-c3ccc(OCc4cccc(C)n4)c(Cl)c3)c3c(N)ncnc32)C1 [CHMFL-EGFR-26],remaining binding at 1 µM,ACVR1B,30%
same,remaining binding at 1 µM,CSNK2A1,100%
same,remaining binding at 1 µM,BRK,26%
same,remaining binding at 1 µM,MYO3A,97%
same,remaining binding at 1 µM,CSNK1G2,100%
same,remaining binding at 1 µM,[1],0.7%
same,remaining binding at 1 µM,PIK3CA(I800L),100%
same,remaining binding at 1 µM,BLK,0.35%
same,remaining binding at 1 µM,HIPK2,100%
same,remaining binding at 1 µM,KIT(A829P),100%
same,remaining binding at 1 µM,LOK,0.2%
same,remaining binding at 1 µM,CAMK1,100%
same,remaining binding at 1 µM,PIK3CG,100%
same,remaining binding at 1 µM,[2],100%
same,remaining binding at 1 µM,PRKD1,85%
same,% control,"EGFR(L747-T751del,Sins)",21%
same,remaining binding at 1 µM,TSSK3,100%
same,remaining binding at 1 µM,AXL,83%
same,remaining binding at 1 µM,p38-beta,100%
same,remaining binding at 1 µM,AURKC,87%
same,remaining binding at 1 µM,STK36,92%
same,remaining binding at 1 µM,ERK8,91%
same,remaining binding at 1 µM,ADCK3,100%
same,remaining binding at 1 µM,p38-gamma,100%
same,remaining binding at 1 µM,KIT(D816H),100%
same,remaining binding at 1 µM,TNIK,11%
same,remaining binding at 1 µM,TGFBR2,100%
same,GI50,CHO,> 10 µM
same,remaining binding at 1 µM,[3],95%
same,remaining binding at 1 µM,PIK3CA(E545A),100%
same,remaining binding at 1 µM,[4],95%
same,remaining binding at 1 µM,EPHA4,100%
same,remaining binding at 1 µM,SNARK,25%
same,remaining binding at 1 µM,SRPK3,90%
same,remaining binding at 1 µM,EPHA5,100%
same,remaining binding at 1 µM,MST1,61%
same,remaining binding at 1 µM,PAK3,62%
same,remaining binding at 1 µM,MRCKA,64%
same,remaining binding at 1 µM,DRAK2,91%
same,remaining binding at 1 µM,[5],98%
same,remaining binding at 1 µM,DYRK2,86%
same,remaining binding at 1 µM,SgK110,100%
